# Literature values, collected in patent publication US5883103A, “Oral acyclovir delivery” (priority 1995, dated 1999).
# What was measured:
# [1] = test system: cellular α-DNA polymerase; settings: compared with viral DNA polymerase
# [2] = test system: herpes simplex virus (HSV), cytomegalovirus (CMV) and varicella-zoster
# [3] = test system: thymidine kinase (TK) expressed by uninfected normal cells
# [4] = test system: herpes simplex types I (HSV-1)
# varicella-zoster = settings: in vivo
# [5] = test system: TK encoded by HSV, varicella zoster, and EBV
# [6] = test system: herpes simplex types 2 (HSV-2)
# [7] = oral
smiles,measurement,setting,value
Nc1nc2c(ncn2COCCOP(=O)(O)OP(=O)(O)OP(=O)(O)O)c(=O)[nH]1 [Acyclovir triphosphate],effect on viral DNA polymerase,viral DNA polymerase,interferes with viral DNA polymerase
same,effect on cellular α-DNA polymerase,[1],to a lesser degree
"Nc1nc2c(ncn2COCCO)c(=O)[nH]1 [acyclovir, 2-amino-1,9-dihydro-9-[(2-hydroxy-ethoxy)methyl]-6H-purin-6-one]",safety and efficacy in treatment of viral disease,[2]; immunocompromised and immunocompetent patients,safe and effective
same,suppression of reactivated or newly acquired viral diseases,"[2]; oral administration, genital herpes simplex, shingles, acute varicella-zoster",suppression of reactivated or newly acquired viral diseases
same,morbidity and mortality from viral disease,"[2]; pre- and postoperative prophylaxis, long-term (>6 months) oral",reduced
same,substrate for TK of uninfected normal cells,[3],not a substrate
same,inhibition of EBV,Epstein-Barr virus (EBV),inhibits
same,inhibition of HSV-1,[4],inhibits
same,effect on symptoms of acute varicella-zoster disease,varicella-zoster,"reduces fever, chronic pain, the progression of rash and accelerates cutaneous healing"
same,toxicity in vitro for uninfected normal cells,uninfected normal cells,much less toxic in vitro for uninfected normal cells
same,conversion by viral TK,[5],converts acyclovir into acyclovir monophosphate
same,inhibition of varicella zoster,varicella zoster,inhibits
same,inhibition of HSV-2,[6],inhibits
same,inhibition of CMV,cytomegalovirus (CMV),inhibits
same,absorption,[7],slowly and erratically absorbed
same,bioavailability,[7],15-30%
